Test results published in US20210008161A1, “METHODS AND COMPOSITIONS FOR IMPROVED HOMOLOGY DIRECTED REPAIR” (CRISPR THERAPEUTICS AG, priority 2019, published 2021).

Experiments:
Type in all cases: cell-based, human
HEK293 T cells = experiment: TIDE analysis of DSB repair at CFTR gene locus
Procedure: The effect of Nu7441 treatment on HDR was also evaluated at the CFTR gene locus in HEK293 T cells. To do so cells were electroporated with RNP comprising Cas9 and a gRNA targeting the CFTR gene locus (SEQ ID NO: 18; sgRNA target sequence identified by SEQ ID NO: 19). 2×10^5 cells were edited with 1 μM Cas9 and 1.5 μM gRNA. The cells were transfected with a ssODN donor (SEQ ID NO: 42). Cells were edited with 100 μM ssODN. The ssODN contains homology arms spanning both sides of the DSB induced by the Cas9-guide and is designed to include 3 additional base pairs (GCA) into the CFTR gene to aid detection of HDR. Cells were also treated with 5 μM Nu7441. Gene correction was assessed by TIDE analysis. TIDE analysis uses a pair of PCR reactions and standard capillary sequencing runs to identify mutations induced at the site of a DSB (see e.g., Brinkman (2014) Nucleic Acids Res 42:e168). The type of mutation induced at the DSB was indicative of the pathway used to repair the DSB. Formation of an indel comprising either an insertion or a deletion of bases was considered due to NHEJ repair; a deletion of 2-3 base pairs was considered due to MMEJ repair; while an insertion of 3 base pairs was considered due to HDR repair. Shown in FIGS. 4A-4B are mutations introduced at the DSB for cells treated with Nu7441 (FIG. 4B) compared to a DMSO negative control (FIG. 4A). […] This reduction in NHEJ repair in the presence of Nu7441 was evaluated with an additional ssODN donor (SEQ ID NO: 41).

hTERT RPE-1 cells = experiment: HDR insertion of AAV-delivered GFP donor into AAVS1 locus (GFP fluorescence); conditions: AAV (DJ serotype) GFP donor and mRNA encoding i53, over AAV alone, FIG. 7
Procedure: RPE1 cells were lipofected with RNP comprised of Cas9 protein and gRNA targeting the AAVS1 locus (target sequence shown in SEQ ID NO: 3; spacer sequence shown in SEQ ID NO: 4). Cells were edited with 1 μg Cas9 and 1 μg gRNA. Cells were infected with AAV containing homology donor DNA encoding GFP (DJ serotype) as well as mRNA encoding i53 (mRNA ORF shown in SEQ ID NO: 69). […] HDR efficiency was determined by measuring the level of GFP fluorescence in the cells following gene-editing.

patient-derived PBMCs = experiment: SCD gene correction by HDR and INDEL frequency by NGS in patient-derived PBMCs
Procedure: It was further evaluated if editing of patient-derived PBMCs in the presence of i53 would yield high levels of correction of the HBB gene. […] The PBMCs were expanded in StemSpan SFEM II (1×)+StemSpan CC100 (1×)+Dexamethasone 1 μM+hEPO 2 IU/mL at 37° C. under normoxic conditions (20% O2 concentration). The cells were edited following five days of in vitro culture. […] On day 8, the cells were transferred to Phase 1 media, and differentiation to erythrocytes was performed through day 18 as described above. Efficiency of HDR at the HBB gene locus was evaluated on day 12 using the NGS assay described in Example 4. Also evaluated was the frequency of INDELs at the R02 cut-site as measured by NGS.

[1] = either ssODN donor (SEQ ID NO: 41 or 42), FIG. 5

## O=c1cc(N2CCOCC2)oc2c(-c3cccc4c3sc3ccccc34)cccc12 [Nu7441]
HEK293 T cells; 5 μM Nu7441, ssODN SEQ ID NO: 42, FIG. 4
  HDR repair (+3 base pair insertion) at the DSB: much higher levels
HEK293 T cells; 5 μM Nu7441, ssODN SEQ ID NO: 42, vs DMSO negative control, FIG. 4
  indel formation (NHEJ repair): dramatically reduced
HEK293 T cells; [1]
  HDR repair: increase
  indel formation due to NHEJ repair: decreased levels

## i53: polypeptide inhibitor of 53BP1 (SEQ ID NO: 70), introduced as an mRNA-encoded protein (ORF SEQ ID NO: 69)
hTERT RPE-1 cells
  HDR efficiency: increase
patient-derived PBMCs; compared to control cells, FIG. 35B
  frequency of INDELs: reduced
patient-derived PBMCs; day 12, FIG. 35A
  frequency of correction of the HBB gene by HDR repair: approximately 60%
patient-derived PBMCs; edited in the presence of i53
  level of HDR repair and frequency of INDELs in HBB, PBMCs vs CD34-expressing LT-HSPCs: comparable
